Data set [1] can be described thus: Metabolic stability in Sprague-Dawley rat liver microsomes assessed as intrinsic clearance at 1 uM preincubated for 10 mins followed by NADPH addition by LC-MS analysis. The data set is classed as ADME, Microsome. The conditions noted are these: read-out: CLH. (In general: Microsomes from liver hold many membrane-bound enzymes, among them those of drug oxidation.)

Data set [2] is described as follows: Metabolic stability in human liver microsomes assessed as compound remaining at 1 uM preincubated for 10 mins followed by NADPH addition by LC-MS analysis. Conditions: read-out: Stability. The data set is classed as ADME, Microsome.
Data set [3] in a line: Acid dissociation constant, pKa of the compound. It counts as physicochemical.
Data set [4] deals with T1, Cytochrome P450 2B6 (Homo sapiens, UniProt P20813).
T1 sequence (P20813 whole entry): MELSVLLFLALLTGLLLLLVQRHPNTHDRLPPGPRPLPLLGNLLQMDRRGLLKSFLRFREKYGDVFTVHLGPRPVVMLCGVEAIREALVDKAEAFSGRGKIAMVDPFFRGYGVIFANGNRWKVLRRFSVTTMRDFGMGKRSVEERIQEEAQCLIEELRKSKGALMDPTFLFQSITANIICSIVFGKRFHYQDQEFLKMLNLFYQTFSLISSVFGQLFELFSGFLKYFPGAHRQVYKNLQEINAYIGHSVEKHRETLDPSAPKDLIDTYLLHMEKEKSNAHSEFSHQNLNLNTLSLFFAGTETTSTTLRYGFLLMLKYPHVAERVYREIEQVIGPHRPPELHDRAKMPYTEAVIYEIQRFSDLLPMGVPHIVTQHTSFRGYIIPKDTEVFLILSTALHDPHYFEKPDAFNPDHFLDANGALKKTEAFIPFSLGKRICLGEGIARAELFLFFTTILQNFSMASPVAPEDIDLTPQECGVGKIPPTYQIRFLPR
The data set can be described thus: Inhibition of CYP2B6 (unknown origin). It counts as ADME.

For data set [5], the target named is Cytochrome P450 2C9 (Homo sapiens, UniProt P11712). The data set can be described thus: Inhibition of CYP2C9 (unknown origin). The data set is classed as ADME.
Chain of Cytochrome P450 2C9 (P11712 whole entry): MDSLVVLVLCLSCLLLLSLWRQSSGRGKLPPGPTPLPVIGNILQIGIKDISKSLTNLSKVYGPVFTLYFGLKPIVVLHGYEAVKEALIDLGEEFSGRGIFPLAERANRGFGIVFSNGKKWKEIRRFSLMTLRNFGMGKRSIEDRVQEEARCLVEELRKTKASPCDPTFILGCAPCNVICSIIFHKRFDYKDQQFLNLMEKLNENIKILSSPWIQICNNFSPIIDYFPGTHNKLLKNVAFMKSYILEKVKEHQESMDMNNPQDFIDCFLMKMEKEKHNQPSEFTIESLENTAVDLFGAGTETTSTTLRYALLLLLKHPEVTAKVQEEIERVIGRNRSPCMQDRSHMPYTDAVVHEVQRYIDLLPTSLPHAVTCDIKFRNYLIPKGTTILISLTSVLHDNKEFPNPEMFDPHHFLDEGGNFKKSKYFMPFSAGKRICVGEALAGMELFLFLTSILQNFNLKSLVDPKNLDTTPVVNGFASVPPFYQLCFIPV
In data set [6] the target is Cytochrome P450 3A4 (Homo sapiens, UniProt P08684). The experiment in a line: Inhibition of CYP3A4 (unknown origin). It counts as ADME.
Chain of Cytochrome P450 3A4 (P08684 whole entry): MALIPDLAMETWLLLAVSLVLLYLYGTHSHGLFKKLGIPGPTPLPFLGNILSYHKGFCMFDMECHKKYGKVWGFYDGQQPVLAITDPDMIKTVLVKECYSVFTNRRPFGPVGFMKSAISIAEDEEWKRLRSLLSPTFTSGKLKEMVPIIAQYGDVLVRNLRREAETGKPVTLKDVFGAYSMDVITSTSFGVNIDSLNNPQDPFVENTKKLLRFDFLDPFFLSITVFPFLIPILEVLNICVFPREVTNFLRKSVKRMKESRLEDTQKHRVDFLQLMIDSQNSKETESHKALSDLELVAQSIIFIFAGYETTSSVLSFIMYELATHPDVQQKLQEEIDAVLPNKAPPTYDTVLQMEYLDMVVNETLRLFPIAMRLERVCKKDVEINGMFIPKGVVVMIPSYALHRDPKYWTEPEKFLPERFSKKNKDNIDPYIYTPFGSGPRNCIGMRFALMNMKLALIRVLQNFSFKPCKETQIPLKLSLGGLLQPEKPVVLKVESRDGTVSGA
A short description of data set [7]: Half life in male Sprague-Dawley rat at 6.1 micromol/kg, iv administered as single dose and measured upto 24 hrs by LC-MS/MS analysis. The data set is classed as ADME, organism-based. Conditions: in vivo, dose 6.1 µmol/kg.
The nature of data set [8]: Apparent volume of distribution in male Sprague-Dawley rat at 6.1 micromol/kg, iv administered as single dose and measured upto 24 hrs by LC-MS/MS analysis. The conditions noted are these: in vivo, dose 6.1 µmol/kg, read-out: Vz. The data set is classed as ADME, organism-based.
Data set [9] can be described thus: Half life in male Sprague-Dawley rat at 24.4 micromol/kg, IG administered as single dose and measured upto 24 hrs by LC-MS/MS analysis. The data set is classed as ADME. The conditions noted are these: in vivo, po, dose 24.4 µmol/kg.
Data set [10] can be described thus: AUClast in male Sprague-Dawley rat at 24.4 micromol/kg, IG administered as single dose and measured upto 24 hrs by LC-MS/MS analysis. It counts as ADME. The conditions noted are these: in vivo, po, dose 24.4 µmol/kg.
The nature of data set [11]: MRTlast in male Sprague-Dawley rat at 24.4 micromol/kg, IG administered as single dose and measured upto 24 hrs by LC-MS/MS analysis. It counts as ADME. Conditions: in vivo, po, dose 24.4 µmol/kg.
A short description of data set [12]: Bioavailability in male Sprague-Dawley rat at 24.4 micromol/kg, IG administered as single dose and measured upto 24 hrs by LC-MS/MS analysis. The data set is classed as ADME, organism-based. The conditions noted are these: in vivo, po, 24.4 µmol/kg.
Data set [13] can be described thus: Cmax in male Sprague-Dawley rat at 24.4 micromol/kg, IG administered as single dose and measured upto 24 hrs by LC-MS/MS analysis. It counts as ADME. The conditions noted are these: in vivo, po, dose 24.4 µmol/kg.
In data set [14] the target is GABA-A receptor; alpha-1/beta-2/gamma-2 (Homo sapiens) (UniProt P14867+P47870+P18507). The experiment in a line: Positive allosteric modulation of synaptic alpha1beta2gamma2 GABA-A receptor (unknown origin) transfected in LTK cells assessed as potentiation of GABA-induced peak current amplitude by measuring maximal efficacy at 0.01 to 10 uM at -80 mV holding potential preincubated for 30 secs followed by GABA stimulation for 2 secs by Q-patch assay relative to control. It counts as cell-based. The conditions noted are these: filed as positive allosteric modulator, dose 0.01-10 µM, time 32.0 sec.

In data set [15] the target is Gamma-aminobutyric acid receptor subunit alpha-4/beta3/delta (Homo sapiens, UniProt O14764+P28472+P48169). The data set can be described thus: Positive allosteric modulation of extrasynaptic alpha4beta3delta GABA-A receptor (unknown origin) transfected in CHO cells assessed as potentiation of GABA-induced peak current amplitude at -80 mV holding potential preincubated for 30 secs followed by GABA stimulation for 2 secs by manual patch assay. It counts as cell-based.
Chain of Gamma-aminobutyric acid receptor subunit alpha-4/beta3/delta (P28472 whole entry): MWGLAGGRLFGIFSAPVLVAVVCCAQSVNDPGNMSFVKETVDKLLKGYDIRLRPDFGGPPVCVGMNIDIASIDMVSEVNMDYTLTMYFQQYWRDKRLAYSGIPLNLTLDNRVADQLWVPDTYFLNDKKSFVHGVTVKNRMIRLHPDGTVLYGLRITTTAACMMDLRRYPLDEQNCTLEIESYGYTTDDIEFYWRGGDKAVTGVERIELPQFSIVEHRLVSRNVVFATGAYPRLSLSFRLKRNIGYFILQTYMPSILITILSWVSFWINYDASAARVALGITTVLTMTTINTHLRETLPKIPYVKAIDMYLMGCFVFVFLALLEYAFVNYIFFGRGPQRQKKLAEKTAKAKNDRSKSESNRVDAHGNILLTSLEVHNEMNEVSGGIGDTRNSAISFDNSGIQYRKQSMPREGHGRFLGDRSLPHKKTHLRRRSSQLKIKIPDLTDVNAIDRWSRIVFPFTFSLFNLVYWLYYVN
Chain of Gamma-aminobutyric acid receptor subunit alpha-4/beta3/delta (P48169 whole entry): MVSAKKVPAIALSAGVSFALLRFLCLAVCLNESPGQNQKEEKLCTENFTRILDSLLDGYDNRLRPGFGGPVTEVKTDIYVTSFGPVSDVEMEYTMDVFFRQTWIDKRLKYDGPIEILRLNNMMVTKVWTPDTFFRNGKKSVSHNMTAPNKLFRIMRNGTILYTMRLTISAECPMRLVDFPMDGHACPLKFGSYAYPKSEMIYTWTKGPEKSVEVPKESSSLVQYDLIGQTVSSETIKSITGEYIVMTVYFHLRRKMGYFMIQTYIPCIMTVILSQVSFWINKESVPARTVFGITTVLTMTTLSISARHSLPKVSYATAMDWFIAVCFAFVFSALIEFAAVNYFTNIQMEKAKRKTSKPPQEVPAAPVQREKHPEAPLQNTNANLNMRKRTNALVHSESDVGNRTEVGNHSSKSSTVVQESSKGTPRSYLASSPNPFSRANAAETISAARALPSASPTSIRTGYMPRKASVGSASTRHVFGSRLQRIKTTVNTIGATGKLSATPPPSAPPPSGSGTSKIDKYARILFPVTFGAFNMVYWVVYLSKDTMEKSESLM
Chain of Gamma-aminobutyric acid receptor subunit alpha-4/beta3/delta (O14764 whole entry): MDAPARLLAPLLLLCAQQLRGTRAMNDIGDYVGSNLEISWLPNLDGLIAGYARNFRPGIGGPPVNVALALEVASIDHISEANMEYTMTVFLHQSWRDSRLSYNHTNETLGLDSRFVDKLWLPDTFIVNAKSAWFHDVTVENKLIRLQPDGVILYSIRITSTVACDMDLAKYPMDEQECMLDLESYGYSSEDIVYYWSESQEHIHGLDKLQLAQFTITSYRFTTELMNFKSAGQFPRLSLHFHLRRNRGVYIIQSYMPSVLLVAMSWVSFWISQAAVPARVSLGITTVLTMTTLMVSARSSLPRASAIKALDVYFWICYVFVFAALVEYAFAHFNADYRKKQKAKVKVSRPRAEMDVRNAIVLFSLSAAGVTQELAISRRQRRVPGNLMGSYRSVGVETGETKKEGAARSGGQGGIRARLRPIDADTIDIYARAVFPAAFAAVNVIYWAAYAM

The target in data set [16] is Gamma-aminobutyric acid receptor subunit alpha-4/beta3/delta (Homo sapiens) (UniProt P28472+P48169+O14764). The data set can be described thus: Positive allosteric modulation of extrasynaptic alpha4beta3delta GABA-A receptor (unknown origin) transfected in CHO cells assessed as potentiation of GABA-induced peak current amplitude by measuring maximal efficacy at 0.01 to 10 uM at -80 mV holding potential preincubated for 30 secs followed by GABA stimulation for 2 secs by manual patch assay relative to control. The data set is classed as cell-based. The conditions noted are these: filed as positive allosteric modulator, dose 0.01-10 µM, time 32.0 sec.

A short description of data set [17]: Drug concentration in Sprague-Dawley rat brain at 24.4 micromol/kg, IG measured after 6 hrs by LC-MS/MS analysis. The data set is classed as ADME, tissue-based. The conditions noted are these: in vivo, po, dose 24.4 µmol/kg.

The pKa is the negative logarithm of the acid dissociation constant. Read a low pKa as a group that gives up its proton readily. By IC50 is commonly meant the point on the concentration scale where inhibition reaches its midpoint. Lower therefore signals greater potency. What is called half-life is the time in which the quantity being followed falls by half. Higher therefore signals slow loss. By AUC(0-t) is commonly meant the area under the concentration-time curve up to a stated or last time point. Broadly, the MRT last is the average time that molecules of a dose stay in the body. Broadly, the bioavailability is dose-corrected exposure relative to a reference, in per cent. High values mean good availability, low ones poor availability. One may read the Cmax as the highest concentration seen after dosing. As usually defined, the Emax is the maximal effect, on the per cent scale that the assay sets. What is called EC50 is the concentration at which the effect is half-maximal.

As to `C[C@@]1(O)CC[C@H]2[C@H](CC[C@@H]3[C@@H]2CC[C@]2(C)[C@@H](C(=O)Cn4cc(C#N)cn4)CC[C@@H]32)C1` [ZURANOLONE], in data set [1], the CLint scaled at 1 µM was determined as 3.11 L/h/kg. The remaining at 1 µM in data set [2] came out at 72%. This compound gave a pKa in [3] above 12. In addition, the 50% inhibitory concentration (IC50) in [4], in data set [5] and in [6] was above 30 µM in each case. In addition, the half-life in data set [7] was 2.45 h; in data set [9], 3.8 h. In addition, the Vd in [8] was found to be 4.66 L/kg. The AUC(0-t) at 24 h in data set [10] is 12 µM·h. Moreover, in [11], the MRT last at 24 h turned out to be 4.46 h. The same compound registered a bioavailability in [12] of 57.7%. Also, the Cmax in data set [13] amounted to 2.29 µM. Also, the maximal response (Emax) in data set [14] was 980%; in data set [16], 1040%. Also, the EC50 in data set [15] came out at 0.135 µM. Besides, the Ct in [17] stood at 193 nmol/kg.

On to `C[C@@]1(O)CC[C@H]2[C@H](CC[C@@H]3[C@@H]2CC[C@]2(C)[C@@H](C(=O)Cn4cnn(-c5cc(F)nc(F)c5)c4=O)CC[C@@H]32)C1`, for which the CLint scaled at 1 µM in data set [1] stood at 1.38 L/h/kg. The remaining at 1 µM in [2] amounted to 98%. Moreover, the pKa in [3] is above 12. Also, the concentration for half-maximal inhibition (IC50) in data set [4], in data set [5] and in data set [6] was above 30 µM throughout. Further, the half-life is 5.2 h in data set [7] and 6.58 h in data set [9]. Moreover, in [8], the Vd was found to be 7.38 L/kg. The compound also came in with an area under the curve AUC(0-t) at 24 h in data set [10] of 24 µM·h. The compound also had an MRT last at 24 h in [11] of 7.74 h. Moreover, in data set [12], the bioavailability was 99.6%. This compound yielded a Cmax in data set [13] of 2.53 µM. The figures for the maximal effect (Emax) in [14] and in data set [16] were 675% and 1070%, respectively. The half-maximal effective concentration (EC50) in data set [15] was found to be 0.075 µM. The Ct in [17] amounted to 2339 nmol/kg.

The record behind these values is ChEMBL document CHEMBL5608182, “Synthesis and evaluation of neuroactive steroids with novel pharmacophore at C-21 let identify a compound with advantageous PK profile and higher EC50 and Emax as PAM on GABAA receptor” (Eur J Med Chem, 2024).
